Reference: PubChem BioAssay AID977606 (Broad Institute, 2014)
Active and inactive are the calls of the source. No rule for the calls is given here.

The compounds below were run on INS-1E Gaussia luciferase insulin secretion, no glucose, luminescence (assay: glucose-independent GLuc insulin release activation – cell-based, INS-1E, Gaussia luciferase, luminescence, cherry-pick, counter-screen for glucose-dependent insulin secretion activators, dose response (AID 977606)).

Row | Compound | AC40
1 | CN(C)C(=O)COC(=O)c1cccnc1Nc1ccccc1F | 29.5 µM
2 | CC(=O)Nc1cc(-c2cccc(C(=O)NCCN(C)C)c2)cn2c(-c3cccc(C(F)(F)F)c3)cnc12 | 8.13 µM
3 | Cc1ccc(C)c(OCC(=O)Nc2nonc2NC(=O)COc2cc(C)ccc2C)c1 | 3.38 µM
4 | CC(C)NC(=O)OC[C@H]1O[C@H](C#Cc2ccc(C(C)(C)C)cc2)C=C[C@H]1O | 20.3 µM
5 | CCN1CCN(Cc2ccc(NC(=O)c3cccc(-c4ccc5nc(NC(=O)C6CC6)sc5n4)c3)cc2C(F)(F)F)CC1 | 12 µM
6 | CCCc1nc2ccccc2c(=O)n1CC(=O)c1ccc(OC)cc1 | 5.72 µM
7 | OC(c1ccccc1)(c1ccccc1)C1CCN(CCCOc2ccc3c(c2)CCCC3)CC1 | 3.37 µM
8 | c1ccc(Oc2ccccc2-c2cc(NCCc3cccnc3)n3nccc3n2)cc1 | 13.1 µM
9 | CCOc1ccc(-n2nnnc2-c2nc3ccccc3s2)cc1 | 12.2 µM
10 | O=C1CC(Sc2nnc(-c3ccccc3)o2)C(=O)N1c1ccccc1 (stereo not drawn) | 9.58 µM
11 | COC(=O)C1=C(C)N(Cc2ccc(C(F)(F)F)cc2)C(=NCc2ccccc2)NC1c1ccc(Cl)cc1 (stereo not drawn) | 10.8 µM
12 | COc1ccc(OC)c(NC(=O)c2cc3c(Cl)nc4ccccc4c3s2)c1 | 6.97 µM
13 | COc1ccc(NC(=O)Cn2cnc3c(cnn3-c3ccc(C)c(C)c3)c2=O)c(OC)c1 | 3.41 µM
14 | COC(=O)C1=C(C)N(Cc2ccc(C(F)(F)F)cc2)C(=NCC2CC2)NC1c1ccccc1 (stereo not drawn) | 9.63 µM
15 | CC1CN(Cc2ccccc2)C(=S)NC1=O (stereo not drawn) | 28.6 µM
16 | Fc1cccc(CN2C[C@@H]3N[C@H](C2)[C@@H]3c2ccc(-c3cccc(F)c3)cc2)c1 | 4.89 µM
17 | O=C(Nc1ccc2c(c1)OCO2)N1C[C@@H]2N[C@H](C1)C2c1ccc(C=Cc2ccccc2)cc1 (stereo partly drawn) | 11.7 µM
18 | Cc1ccc(CNc2nc(NCc3ccccc3)nc3ccsc23)c(C)c1 | 5.58 µM
19 | CC(NC(=O)COC(=O)c1ccccc1Nc1ccccc1)c1ccccc1 (stereo not drawn) | 12.1 µM
20 | CC(C)(c1ccccc1)c1ccc(OCC(O)CNC2CCN(Cc3ccccc3)CC2)cc1 (stereo not drawn) | 5.4 µM
21 | Cc1cc(Nc2ccc(Cl)cc2)nc(NCc2ccccc2)n1 | 6.67 µM
22 | CC(C)(C)c1ccc(-c2cc(-c3ccccc3O)[nH]n2)cc1 | 5.34 µM
23 | CCOC(=O)c1c(NC(=O)Cn2nc(C(F)(F)F)cc2C)sc(C)c1C | 5.96 µM
24 | COc1ccc(/C=N/NC(=O)c2ccc(COc3ccccc3Cl)o2)c(OC)c1C | 4.97 µM
25 | COc1ccc(C(=O)Nc2ccc3c(c2)C(=O)c2ccccc2C3=O)cc1OC | > 35 µM (inactive)
26 | CC(=O)Nc1sc(N/N=C\c2cccc(Cl)c2)nc1-c1cccs1 | 4.69 µM
27 | O=C(COc1ccc2c(c1)OCO2)Nc1ccc2c(c1)oc1ccccc12 | 12.2 µM

Row | Compound | AC40
28 | O=c1c(C=Nc2ccc(Oc3ccccc3)cc2)c[nH]n1-c1cccc(Cl)n1 | 4.28 µM
29 | CN(Cc1ccccc1)C(=S)NC(=O)c1ccc(-c2ccccc2)cc1 | 24 µM
30 | CS(=O)(=O)N(Cc1ccc(Cl)cc1)c1ccc(C(=O)NCCC2=CCCCC2)cc1 | 6.78 µM
31 | COc1cccc(-c2sc3ccccc3c2-c2ccc(OCCN(C)C)cc2)c1 | 2.75 µM
32 | CC(C)CC#Cc1ccc2c(c1)O[C@H](CN(C)C(=O)C1CCCCC1)[C@@H](C)CN([C@@H](C)CO)S2(=O)=O | 15.8 µM
33 | O=C(Nc1ccc(C(F)(F)F)cc1)N1[C@@H]2CNC[C@H]1C2c1ccc(/C=C/c2ccccc2)cc1 (stereo partly drawn) | 7.54 µM
34 | c1ccc(Cn2nnc3c(N4CCc5ccccc54)ncnc32)cc1 | 6.35 µM
35 | COc1ccc(C(C)NCCC(c2ccc(OC(C)C)cc2)c2ccccc2OC)cc1 (stereo not drawn) | 4.99 µM
36 | Cc1cc(OCC(O)CNC(C)c2ccccc2)ccc1C(C)C (stereo not drawn) | 9.73 µM
37 | O=C(Cn1ncc(Cl)c(Cl)c1=O)Nc1ccc2c(c1)OCO2 | 8.01 µM
38 | NS(=O)(=O)c1ccc(NC(=S)N2CCN(c3ccc(Cl)c(Cl)c3)CC2)cc1 | 3.74 µM
39 | Cc1cc(C)nc(Nc2n[nH]c(COc3ccc4ccccc4c3)n2)n1 | 6.18 µM
40 | COc1ccc(-n2c(-c3ccc(Cl)cc3)c[nH]c2=S)cc1 | 17.1 µM
41 | COC(=O)Cn1cc(C#N)c2ccccc21 | > 35 µM (inactive)
42 | CCOc1ncccc1C(=O)NC(C)CCc1ccccc1 (stereo not drawn) | 16.2 µM
43 | Cc1cc(C)c2c(C)nn(C3CCCCC3)c2n1 | > 35 µM (inactive)
44 | Cc1ccc(C(=O)Oc2ccc(-c3nccc(-c4ccccn4)n3)cc2)cc1 | 5.1 µM
45 | C(=C\c1ccc(C2[C@@H]3CN(Cc4nccs4)C[C@H]2N3)cc1)/c1ccccc1 (stereo partly drawn) | 9.48 µM
46 | CCOc1ccc(Nc2oc(-c3ccc(Cl)cc3)nc2C#N)cc1 | 5.43 µM
47 | O=C(CC1c2ccccc2Oc2ccccc21)Nc1ccccc1C(F)(F)F | 5.33 µM
48 | O=c1[nH][nH]c2c1C(c1ccc(Cl)c(Cl)c1)OC(CCc1ccccc1)C2 (stereo not drawn) | 19.2 µM
49 | CCOC(=O)c1c(-n2cnnn2)sc2c1CCCC2 | > 35 µM (inactive)
50 | CC(=O)N(C1CC(C)C(C#N)(C#N)C1(C#N)C#N)N(C)C (stereo not drawn) | 0.795 µM
51 | C[C@@H](NC(=O)C[C@@H]1C[C@@H]2c3cc(NC(=O)Nc4ccccc4F)ccc3O[C@@H]2[C@@H](CO)O1)c1ccccc1 | 34.3 µM
52 | Cc1cccc(-c2ccc(C3[C@@H]4CN(C(=O)C5CCCCC5)C[C@H]3N4)cc2)c1 (stereo partly drawn) | 11.3 µM
53 | COc1ccccc1NC(=O)N1CCCCN2[C@@H](CO)[C@@H](c3ccc(C#CC4CCCC4)cc3)[C@@H]2C1 | 9.17 µM
